In US9499729B2, “Compositions and methods containing fluorine substituted olefins” (HONEYWELL INTERNATIONAL INC., priority 2006, dated 2016):
One block for each molecule: values may come before it.

Tests used:
[1] = Solubility of Artemisinin in the extractant, solvent added to weighed sample until dissolved; format: physicochemical
Source text: A medicament, particularly a plant-derived Artemisinin which is an anti-malarial drug, is extracted from the Artemisia annua plant. A sample of Artemisinin was weighed into a vial.

[2] = Compatibility/stability of refrigerant with lubricating oil in contact with aluminum, copper and steel coupons, sealed tube, one week, visual observation; format: physicochemical; settings: one week at 350° C., liquid contents turn black
Procedure: The compatibility of the refrigerant compounds and compositions of the present invention with PAG lubricating oils while in contact with metals used in refrigeration and air conditioning systems is tested at 350° C., representing conditions much more severe than are found in many refrigeration and air conditioning applications.
Aluminum, copper and steel coupons are added to heavy walled glass tubes. Two grams of oil are added to the tubes. The tubes are then evacuated and one gram of refrigerant is added. The tubes are put into an oven at 350° F. for one week and visual observations are made. At the end of the exposure period, the tubes are removed.
This procedure was done for the following combinations of oil and the compound of the present invention: • a) HFC-1234ze and GM Goodwrench PAG oil • b) HFC1243 zf and GM Goodwrench oil PAG oil • c) HFC-1234ze and MOPAR-56 PAG oil • d) HFC-1243 zf and MOPAR-56 PAG oil • e) HFC-1225 ye and MOPAR-56 PAG oil.
Aluminum, copper and steel coupons are added to a heavy walled glass tube with mineral oil and CFC-12 and heated for one week at 350° C., as in Example 3. At the end of the exposure period, the tube is removed and visual observations are made.

[3] = Flammability / flammability limit (ASTM E-681); format: physicochemical
Procedure: Flammability is another important property for many applications. That is, it is considered either important or essential in many applications, including particularly in heat transfer and blowing agent applications, to use compositions which are of low flammability or are non-flammable. Thus, it is frequently beneficial to use in such compositions compounds which are nonflammable. As used herein, the term “nonflammable” refers to compounds or compositions which are determined to be nonflammable as determined in accordance with ASTM standard E-681, dated 2002, which is incorporated herein by reference. Unfortunately, many HFC's which might otherwise be desirable for used in refrigerant or foam blowing agent compositions are not nonflammable. For example, the fluoroalkane difluoroethane (HFC-152a) and the fluoroalkene 1,1,1-trifluorpropene (HFO-1243zf) are each flammable and therefore not viable for use in many applications.

[4] = Toxicity as stated by applicants (no method given)
[5] = Miscibility with refrigeration lubricants, sealed glass tubes, visual observation of liquid phases; format: physicochemical
Procedure: The miscibility of HFO-1225ye and HFO-1234ze with various refrigeration lubricants is tested. […] For each refrigerant/oil combination, three compositions are tested, namely 5, 20 and 50 weight percent of lubricant, with the balance of each being the compound of the present invention being tested
The lubricant compositions are placed in heavy-walled glass tubes. The tubes are evacuated, the refrigerant compound in accordance with the present invention is added, and the tubes are then sealed. The tubes are then put into an air bath environmental chamber, the temperature of which is varied from about −50° C. to 70° C. At roughly 10° C. intervals, visual observations of the tube contents are made for the existence of one or more liquid phases.

[6] = Solubility of Jasmone in the fluoroolefin, sealed glass tube, frozen and thawed; format: physicochemical
Procedure: The compositions of the present invention also provide advantage when used as part of, and in particular as a carrier for, flavor formulations and fragrance formulations. […] 1.73 grams of R-1234ze were added to the glass tube. The tube was then frozen and sealed. […] The solution contained 20 wt. % Jasome and 80 wt. % R-1234ze, thus establishing favorable use a carrier for flavor formulations and fragrances. It also establishes its potential as an extractant of biologically active compounds (such as Biomass) and fragrances, including from plant matter. In certain embodiments, it may be preferred to use the present composition for in extraction applications with the present fluid in its supercritical state. This an other applications of involving use of the present compositions in the supercritical or near supercritical state are described hereinafter.
Approximately 0.39 grams of Jasmone were put into a heavy walled glass tube and approximately 1.73 grams of transHFC-1233zd were added to the glass tube. The tube was then frozen and sealed. […] The solution contained about 20 wt. % Jasome and about 80 wt. % transHFCO-1233zd.
Approximately 0.39 grams of Jasmone are put into a heavy walled glass tube and approximately 1.73 grams of cisHFC-1233zd are added to the glass tube. The tube is then frozen and sealed. […] The solution contains about 20 wt. % Jasmone and about 80 wt. % cisHFCO-1233zd.

[7] = Dissolution of synthetic PAG lubricant in the solvent; format: physicochemical; settings: PAG lubricant ND-8; combinations in approximate weight ratios: /methanol 98:2, /pentane 96:4, /methanol/pentane 92:2:6
Procedure: A synthetic lubricant, specifically polyalkyleneglycol (PAG) lubricant, and more specifically a PAG consisting essentially of 2 or more oxypropylene groups and having a viscosity of from about 10 to about 200 centistokes at about 37° C. (sold under the trade designation ND-8 by Idemitsu Kosan) are added to a vial containing transHFCO-1233zd. […] The properties of the synthetic lubricant ND-8 are identified below in Table 11 below.
A synthetic lubricant, specifically polyalkyleneglycol (PAG) lubricant, and more specifically a PAG consisting essentially of 2 or more oxypropylene groups and having a viscosity of from about 10 to about 200 centistokes at about 37° C. (sold under the trade designation ND-8 by Idemitsu Kosan) are added to a vial containing cisHFCO-1233zd.
The PAG lubricant described in Example 45 above is added to vials containing, respectively, transHFCO-1233zd/methanol in an approximate 98:2 weight ratio, transHFCO-1233zd/pentane in an approximate 96:4 weight ration and transHFCO-1233zd/methanol/pentane in an approximate 92:2:6 weight ratio.
The PAG lubricant described in Example 45 above is added to vials containing, respectively, cisHFCO-1233zd/methanol in an approximate 98:2 weight ratio, cisHFCO-1233zd/pentane in an approximate 96:4 weight ration and cisHFCO-1233zd/methanol/pentane in an approximate 92:2:6 weight ratio.

[8] = Dissolution of silicone lubricant in the solvent; format: physicochemical; settings: silicone oil added to a concentration of about 10 weight percent
Procedure: A compound of Formula II, namely, transHFCO-1233zd was transferred to a glass container. A silicon lubricant, particularly a high-viscosity (12,500 cP) silicone oil, was added to the transHFCO-1233zd solvent to a concentration of about 10 weight percent.
A compound of Formula II, namely, cisHFCO-1233zd is transferred to a glass container. A silicon lubricant, particularly a high-viscosity (12,500 cP) silicone oil is added to the cisHFCO-1233zd solvent to a concentration of about 10 weight percent.
(§1) A combination of transHFCO-1233zd and trans-1,2-dichloroethylene are prepared in transHFCO-1233zd:trans-1,2-dichloroethylene weight ratios of 25:75 and 50:50. Each combination is then added to a glass container. A silicon lubricant, particularly a high-viscosity (12,500 cP) silicone oil is added to each solvent to a concentration of about 10 weight percent.
as §1, with “cisHFCO-1233zd” for “transHFCO-1233zd”, “cisHFCO-1233zd:trans-1,2-dichloroethylene” for “transHFCO-1233zd:trans-1,2-dichloroethylene”

- solubility in cisHFCO-1233zd (soluble up to) ([1]; solvent cisHFCO-1233zd): approximately 3 weight percent
- solubility in transHFCO-1233zd (soluble up to) ([1]; solvent transHFCO-1233zd): approximately 3 weight percent
Compound: C[C@@H]1CC[C@H]2[C@@H](C)C(=O)O[C@@H]3O[C@@]4(C)CC[C@@H]1[C@]32OO4 [Artemisinin]

Compound: FC(F)(Cl)Cl [CFC-12, Dichlorodifluoromethane]
- visual observation of tube contents (stability with mineral oil and metals) [2]: severe decomposition

Compound: FC(F)(F)C=CCl [HCFO-1233zd, 1,1,1-trifluo-3,chloro-propene]
- flammability [3]: relatively low flammability
- toxicity [4]: relatively low toxicity

Compound: FC=C(F)C(F)(F)F [HFO-1225ye, 1,1,1,2,3 pentafluoropropene]
- miscibility with polyalkylene glycol ([5]; 50 weight percent concentration of the PAG in refrigerant, at 60°): miscible
- miscibility with polyalkylene glycol ([5]; at 70° C., from 5 to 50 weight percent lubricant in refrigerant): miscible
- miscibility with polyalkylene glycol ([5]; from −20 to 50° C.): partially miscible
- miscibility with polyalkylene glycol ([5]; temperature range of −50° C. to −30° C.): immiscible
- degree of toxicity in comparison to CF3CH═CF2 (HFO-1225zc) ([4]; pentafluoropropene with a hydrogen substituent on the terminal unsaturated carbon): relatively low degree of toxicity

Compound: FC=CC(F)(F)F [HFO-1234ze, 1,1,1,3-tetrafluoropropene]
- flammability [3]: relatively low flammability
- toxicity [4]: relatively low toxicity

- liquid phases of mixture with R-1234ze upon thawing ([6]; 0.39 grams Jasmone and 1.73 grams R-1234ze: 20 wt. % Jasmone, 80 wt. % R-1234ze): one liquid phase
- solubility in cisHFCO-1233zd (soluble up to) ([6]; solvent cisHFCO-1233zd, one liquid phase): about 20 weight percent
- solubility in transHFCO-1233zd (soluble up to) ([6]; solvent transHFCO-1233zd, one liquid phase): about 20 weight percent
Compound: CC/C=C\CC1=C(C)CCC1=O [Jasmone]

Compound: FC(F)(F)/C=C\Cl [transHFCO-1233zd, 1,1,1-trifluo,3-chlororopropene]
- concentration of PAG at which a homogeneous, single-phase solution is formed [7]: greater than 10 % by weight
- solution formed with silicone oil [8]: homogeneous, single-phase solution
